Test results: patent publication US20230303539A1, “IMMUNOREGULATORY COMPOUND AND ANTITUMOR APPLICATION THEREOF” (SHANGHAITECH UNIVERSITY, priority 2020, published 2023)

Legend:
[1] = system: multiple myeloma cancer cells MM.1S; assay: Cell proliferation inhibition (cell viability, CCK-8) in MM.1S; assay type: cell-based; settings: Homo sapiens, MM1.S; MM.1S cells, 72 h treatment, CCK-8 cell viability
Description: (§1) The tested cell lines used were: Multiple myeloma cell line MM.1S, human Burkitt's lymphoma cell line Daudi, human acute promyelocytic leukemia cell line NB4, human mantle cell lymphoma cell line JEKO-1, human B-cell lymphoma cell line SU-DHL-4, human mantle cell lymphoma cell line Mino, human diffuse large B-cell lymphoma cell line TMD8, human B-cell lymphoma cell line DOHH2, PBMCs cell and human diffuse large B-cell lymphoma cell line WSU-DLCL2, which were purchased from ATCC (American type Culture Collection) or Cell Bank/Stem Cell Bank, Chinese Academy of Sciences. The medium was RPMI1640 supplemented with 10% FBS (fetal calf serum) and 1% Penicillin-Streptomycin. The cells used were identified as correct cells by STR cells, and were negative for mycoplasma through routine inspections.
(§2) IC50 values of the compounds of the present disclosure (including the compounds in Table 1 and compounds of examples 1-23) were measured using Cell Titer Blue, Cell Titer GLO, or WST reagent from Promega Company. Assay details are as follows: Cells were seeded in 100 μL RPMI1640 medium containing serum at a density of 15,000 cells/well. After 24 h, the inoculated cells were treated with diluted commercial inhibitor and the compounds of the present disclosure to be tested after serial dilution. After the cells were treated with the compounds of the present disclosure to be tested for 72 h, cell viability was determined after adding the cell viability detection kit listed above according to the reagent operating instructions. The negative control was DMSO, and the positive control was a commercial inhibitor, both of which were used to treat the cells through the same method as that of the compounds of the present disclosure. The growth inhibition of the compounds of the present disclosure on cells was plotted by Prism Graphpad software, and the IC50 values of the compounds of the present disclosure were calculated therefrom.
(§3) We tested the activities of the compounds of the present invention (including the compounds in Table 1 and Examples 1-23 compounds) in multiple myeloma cancer cells MM.1S cell and B lymphoma cells Daudi through a dose-dependent manner. The cells were treated with the compounds of the present invention at 10 different successively decreasing concentrations (starting at the highest concentration of […]; 5-fold serial dilutions) for 72 h, and then the cell viability determination was performed in accordance with CCK-8 reagent operating instructions.

[2] = system: B lymphoma cells Daudi; assay: Cell proliferation inhibition (cell viability, CCK-8) in Daudi; assay type: cell-based; settings: Homo sapiens, 72 h treatment, CCK-8 cell viability
Description: as §1, §2, §3

[3] = system: human mantle cell lymphoma cell line Mino; assay: Cell proliferation inhibition (CCK-8) in Mino; assay type: cell-based; settings: MINO cells, 72 h treatment, read-out: IC50 (half inhibitory concentration) in tumor cells, MINO
Description: as §1, with “The cells used were identified as correct cells by STR cells, and were negative for mycoplasma through routine inspections.” left out
(§4) IC50 values of the compounds of the present disclosure (including the compounds in Table 1 and compounds of examples 1-23) were measured using Cell Titer Blue, Cell Titer GLO, or WST reagent from Promega Company. […] After the cells were treated with the compounds of the present disclosure to be tested for 72 h, cell viability was determined after adding the cell viability detection kit listed above according to the reagent operating instructions. […] The growth inhibition of the compounds of the present disclosure on cells was plotted by Prism Graphpad software, and the IC50 values of the compounds of the present disclosure were calculated therefrom. […]

[4] = system: human diffuse large B-cell lymphoma cell line WSU-DLCL2; assay: Cell proliferation inhibition (CCK-8) in WSU-DLCL2; assay type: cell-based; settings: WSUDLCL2, WSU-DLCL2 cells, 72 h treatment, read-out: IC50 (half inhibitory concentration) in tumor cells, WSU-DLCL2
Description: as §1, with “The cells used were identified as correct cells by STR cells, and were negative for mycoplasma through routine inspections.” left out
as §4

[5] = system: human B-cell lymphoma cell line DOHH2; assay: Cell proliferation inhibition (CCK-8) in DOHH2; assay type: cell-based; settings: DOHH-2, DOHH2 cells, 72 h treatment, read-out: IC50 (half inhibitory concentration) in tumor cells, DOHH2
Description: as §1, with “The cells used were identified as correct cells by STR cells, and were negative for mycoplasma through routine inspections.” left out
as §4

[6] = system: human diffuse large B-cell lymphoma cell line TMD8; assay: Cell proliferation inhibition (CCK-8) in TMD8; assay type: cell-based; settings: TMD8 cells, 72 h treatment, read-out: IC50 (half inhibitory concentration) in tumor cells, TMD8
Description: as §1, with “The cells used were identified as correct cells by STR cells, and were negative for mycoplasma through routine inspections.” left out
as §4

[7] = system: human mantle cell lymphoma cell line JEKO-1; assay: Cell proliferation inhibition (CCK-8) in JEKO-1; assay type: cell-based; settings: JEKO-1 cells, 72 h treatment, FIG. 3
Description: as §1, with “The cells used were identified as correct cells by STR cells, and were negative for mycoplasma through routine inspections.” left out
as §4

[8] = system: human B-cell lymphoma cell line SU-DHL-4; assay: Cell proliferation inhibition (CCK-8) in SU-DHL-4; assay type: cell-based; settings: SU-DHL-4 cells, 72 h treatment, FIG. 3
Description: as §1, with “The cells used were identified as correct cells by STR cells, and were negative for mycoplasma through routine inspections.” left out
as §4

[9] = system: IKZF1/3; assay: IKZF protein degradation, western blotting assay in WSU-DLCL2; assay type: cell-based, human; settings: dose-dependent, FIGS. 4-5
Description: (§5) Most antibodies were purchased from Cell Signaling Technology, including IKZF1 (#9034S), IKZF3(#15103S), CK1α(#ab108296). GAPDH antibody was purchased from Abcam Company. Tumor cells were plated in a 24-well plate at a cell seeding density of 3×10^5 cells/mL, with 1 mL culture media per well. After 24 h, the cells were treated with different concentrations of the compounds of the present disclosure. After 16 hours, the cells were collected, and washed with PBS. The supernatant was discarded, and the cells were placed on ice, and treated with RIPA protein lysate containing Halt protease and phosphatase inhibitor. The lysate was centrifuged at 10000 RPM at 4° C. for 10 minutes, and the supernatant was collected. An equal amount of proteins were loaded in 4×SDS sample solution, denatured at 95° C. for 5 minutes, and then freezed to -20° C. or directly subjected to protein electrophoresis (4-15% gradient gel, Bio-rad). […] DC50 value (the drug concentration required for degrading proteins by 50%, abbreviated as DC50) reads method: comparing the gray values of the Western blotting bands for the drug treatment with the gray values of the Western blotting band for the DMSO control, and reading the drug concentration range corresponding to the gray value of the Western blotting bands for the drug treatment which is equal to half of the gray value of the Western blotting band for the DMSO control. […]

[10] = system: IKZF1/3; assay: IKZF protein degradation, western blotting assay in SU-DHL-4; assay type: cell-based, human; settings: SU-DHL-4, western blotting, dose-dependent; FIGS. 4-5
Description: as §5

Cc1nc2cccc(NCc3ccc(CN4CCCCCC4)cc3F)c2c(=O)n1C1CCC(=O)NC1=O (stereo not shown) [SIAIS355035, 3-(5-((4-(azepan-1-ylmethyl)-2-fluorobenzyl)amino)-2-methyl-4-oxoquinazolin-3(4H)-yl)piperidine-2,6-dione]
IC50 [1]: 2.62 ± 0.49 nM
IC50 [2]: 12.9 ± 3.87 nM
IC50 [3]: 5.05 nM
IC50 [4]: 164 nM
IC50 [5]: 307 nM
IC50 [6]: 103 nM
inhibition of JEKO-1 cell line (in words) [7]: significantly stronger inhibitory effects as compared with CC-122 and lenalidomide
inhibition of SU-DHL-4 cell line (in words) [8]: significantly stronger inhibitory effects as compared with CC-122 and lenalidomide
IKZF1/3 degradation (in words) [9]: can significantly degrade IKZF1/3 at effective concentration significantly lower than that of CC-122
IKZF1/3 degradation (in words) [10]: can significantly degrade IKZF1/3 at effective concentration significantly lower than that of CC-122
